# “And” between values parts separate entries of the source, which are not always exact repeats. Identical values can stand only once.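 Assay format: 96-well plates, 48-hour exposure. GI50 = concentration required for 50% inhibition of growth. TGI marks complete inhibition of growth.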
# System: NCI/ADR-RES ovarian
# Assay: growth of human tumour cells (NCI), 48 h
Compound,GI50,TGI [µM]
O=C1/C(=C\c2ccccc2)C2OCC=C3CN4CCC56c7ccccc7N1C5C2C3CC46 (centres undefined),> 100 µM,> 100
Cc1cc(Br)cc(C)c1NC(=O)C(=O)Nn1c(=S)[nH]c2ccccc2c1=O,,> 100
Cn1cc(-c2nc(N[C@@H]3CCCC[C@@H]3N)c(F)c3c2C(=O)NC3)cn1,> 100 µM,> 100
Cc1cc2nc(-c3c(F)cccc3Cl)n(Cc3c(F)cccc3Cl)c2cc1C,12.5 µM,26.3
O=C(/C=C/c1ccco1)c1ccc(Nc2nc(Nc3ccc(F)cc3)nc(Nc3ccc(F)cc3)n2)cc1,15.1 µM,52.1
O=C(NOCCO)c1cc(CN2OCCCC2=O)c(F)c(F)c1Nc1ccc(I)cc1F,19.4 µM and > 10 µM,> 100
Cc1cc2nc3c4ccc(Br)cc4n(CCN(C)C)c3nc2cc1C,0.609 µM,4.69
NNC(=O)C(O)C(O)C(=O)NN (centres undefined),,> 100
O=C(/C=C/c1cccc2ccccc12)Nc1ncc(Cc2ccccc2)s1,0.713 µM,> 69.3
CCCN1CCC=C(c2ccc(Nc3nc(Nc4ccccc4C(N)=O)c4cc[nH]c4n3)c(C)c2)C1,> 22.4 µM,> 25

# System: OVCAR-4 ovarian
# Assay: growth of human tumour cells (NCI), 48 h
Compound,GI50,TGI [µM]
O=C1/C(=C\c2ccccc2)C2OCC=C3CN4CCC56c7ccccc7N1C5C2C3CC46 (centres undefined),> 100 µM,> 100
Cc1cc(Br)cc(C)c1NC(=O)C(=O)Nn1c(=S)[nH]c2ccccc2c1=O,,> 100
Cn1cc(-c2nc(N[C@@H]3CCCC[C@@H]3N)c(F)c3c2C(=O)NC3)cn1,15.4 µM and 19.6 µM,> 100
Cc1cc2nc(-c3c(F)cccc3Cl)n(Cc3c(F)cccc3Cl)c2cc1C,19 µM,74.1
O=C(/C=C/c1ccco1)c1ccc(Nc2nc(Nc3ccc(F)cc3)nc(Nc3ccc(F)cc3)n2)cc1,8.99 µM,36.2
O=C(NOCCO)c1cc(CN2OCCCC2=O)c(F)c(F)c1Nc1ccc(I)cc1F,6.13 µM and > 7.82 µM,> 90.4
Cc1cc2nc3c4ccc(Br)cc4n(CCN(C)C)c3nc2cc1C,1.62 µM,7.49
NNC(=O)C(O)C(O)C(=O)NN (centres undefined),,> 100
O=C(/C=C/c1cccc2ccccc12)Nc1ncc(Cc2ccccc2)s1,2.12 µM,5.16
CCCN1CCC=C(c2ccc(Nc3nc(Nc4ccccc4C(N)=O)c4cc[nH]c4n3)c(C)c2)C1,> 14.6 µM,> 25

# System: PC-3 prostate
# Assay: growth of human tumour cells (NCI), 48 h
Compound,GI50,TGI [µM]
O=C1/C(=C\c2ccccc2)C2OCC=C3CN4CCC56c7ccccc7N1C5C2C3CC46 (centres undefined),18 µM,> 100
Cc1cc(Br)cc(C)c1NC(=O)C(=O)Nn1c(=S)[nH]c2ccccc2c1=O,,> 100
Cn1cc(-c2nc(N[C@@H]3CCCC[C@@H]3N)c(F)c3c2C(=O)NC3)cn1,9.43 µM and 13.3 µM,> 100
Cc1cc2nc(-c3c(F)cccc3Cl)n(Cc3c(F)cccc3Cl)c2cc1C,3.44 µM,12.6
O=C(/C=C/c1ccco1)c1ccc(Nc2nc(Nc3ccc(F)cc3)nc(Nc3ccc(F)cc3)n2)cc1,6.83 µM,21.9
O=C(NOCCO)c1cc(CN2OCCCC2=O)c(F)c(F)c1Nc1ccc(I)cc1F,31.7 µM and > 10 µM,> 84.3
Cc1cc2nc3c4ccc(Br)cc4n(CCN(C)C)c3nc2cc1C,1.51 µM,4.22
NNC(=O)C(O)C(O)C(=O)NN (centres undefined),,> 100
O=C(/C=C/c1cccc2ccccc12)Nc1ncc(Cc2ccccc2)s1,1.01 µM,> 100
CCCN1CCC=C(c2ccc(Nc3nc(Nc4ccccc4C(N)=O)c4cc[nH]c4n3)c(C)c2)C1,> 23.4 µM,> 25

# System: SK-MEL-2 melanoma
# Assay: growth of human tumour cells (NCI), 48 h
Compound,GI50,TGI [µM]
O=C1/C(=C\c2ccccc2)C2OCC=C3CN4CCC56c7ccccc7N1C5C2C3CC46 (centres undefined),3.78 µM,18.4
Cc1cc(Br)cc(C)c1NC(=O)C(=O)Nn1c(=S)[nH]c2ccccc2c1=O,,> 100
Cn1cc(-c2nc(N[C@@H]3CCCC[C@@H]3N)c(F)c3c2C(=O)NC3)cn1,20.5 µM and 24.9 µM,> 100
Cc1cc2nc(-c3c(F)cccc3Cl)n(Cc3c(F)cccc3Cl)c2cc1C,50.2 µM,> 100
O=C(/C=C/c1ccco1)c1ccc(Nc2nc(Nc3ccc(F)cc3)nc(Nc3ccc(F)cc3)n2)cc1,39 µM,> 100
O=C(NOCCO)c1cc(CN2OCCCC2=O)c(F)c(F)c1Nc1ccc(I)cc1F,< 0.01 µM and 0.00324 µM,
Cc1cc2nc3c4ccc(Br)cc4n(CCN(C)C)c3nc2cc1C,2 µM,4.24
NNC(=O)C(O)C(O)C(=O)NN (centres undefined),,> 100
O=C(/C=C/c1cccc2ccccc12)Nc1ncc(Cc2ccccc2)s1,1.41 µM,> 100
CCCN1CCC=C(c2ccc(Nc3nc(Nc4ccccc4C(N)=O)c4cc[nH]c4n3)c(C)c2)C1,2.51 µM,15.4

# System: UO-31 renal
# Assay: growth of human tumour cells (NCI), 48 h
Compound,GI50,TGI
O=C1/C(=C\c2ccccc2)C2OCC=C3CN4CCC56c7ccccc7N1C5C2C3CC46 (centres undefined),4.04 µM,> 100 µM
Cc1cc(Br)cc(C)c1NC(=O)C(=O)Nn1c(=S)[nH]c2ccccc2c1=O,,> 100 µM
Cn1cc(-c2nc(N[C@@H]3CCCC[C@@H]3N)c(F)c3c2C(=O)NC3)cn1,5.74 µM and 7.49 µM,19.7 µM and 21.1 µM
Cc1cc2nc(-c3c(F)cccc3Cl)n(Cc3c(F)cccc3Cl)c2cc1C,13.2 µM,54.5 µM
O=C(/C=C/c1ccco1)c1ccc(Nc2nc(Nc3ccc(F)cc3)nc(Nc3ccc(F)cc3)n2)cc1,14.7 µM,37.2 µM
O=C(NOCCO)c1cc(CN2OCCCC2=O)c(F)c(F)c1Nc1ccc(I)cc1F,0.17 µM and 0.164 µM,13.1 µM and > 10 µM
Cc1cc2nc3c4ccc(Br)cc4n(CCN(C)C)c3nc2cc1C,0.561 µM,9.5 µM
NNC(=O)C(O)C(O)C(=O)NN (centres undefined),,> 100 µM
O=C(/C=C/c1cccc2ccccc12)Nc1ncc(Cc2ccccc2)s1,1.39 µM,3.98 µM
CCCN1CCC=C(c2ccc(Nc3nc(Nc4ccccc4C(N)=O)c4cc[nH]c4n3)c(C)c2)C1,2.98 µM,> 25 µM

# Source: PubChem BioAssay (NCI)
